Source: patent US11084826B2, “RSV antiviral pyrazolo- and triazolo-pyrimidine compounds” (Janssen Sciences Ireland Unlimited Company, priority 2015, dated 2021)
Values joined by “and” are separate entries in the source; they are usually repeats but may differ in a detail not shown here. Equal entries are not always repeated. Where two headings read alike, the source gives them in different places.

How the values were obtained:
rgRSV224 virus = assay: Antiviral activity: inhibition of rgRSV224 (GFP-expressing RSV) replication in HeLa cells, GFP expression read-out; assay type: cell-based, respiratory syncytial virus (RSV); conditions: for RSV HELA pEC50: rgRSV224 virus (MOI=1) in HeLa cells, GFP read-out; for EC50: human respiratory syncytial virus, HeLa, read-out: RSV HELA pEC50, rgRSV224 virus (MOI=1) in HeLa cells, GFP read-out (converted)
In short: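 HeLa cells (3,000/well) were infected with GFP-expressing rgRSV224 (MOI=1) in the presence of 9 serial 4-fold compound dilutions (0.05% DMSO) and incubated at 37° C, 5% CO2. After three days, GFP expression was measured by laser microscopy. EC50 is the concentration giving 50% inhibition of GFP expression.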

HeLa cells = assay: Cytotoxicity in HeLa cells, ATP content measured with the ATPlite kit; assay type: cell-based
[1] = Cytotoxicity in HeLa cells, ATP content measured with the ATPlite kit; assay type: cell-based; conditions: human, TOX HELA pCC50

SMILES	RSV HELA pEC50 (rgRSV224 virus)	TOX HELA pCC50 (HeLa cells)	TOX HELA pCC50 (HeLa cells; HeLa cells, cytotoxicity)	melting point [°C]	EC50 (rgRSV224 virus) [µM]	CC50 at 3 days [1] [µM]
CCc1cc(C(=O)N2CCCCCC2C)nc2cc(-c3ccc4[nH]c(=O)ccc4c3)nn12 (stereo not shown) [Compound A15]	6.47	<4.60				
CNc1cc(C(=O)N2CCc3ccccc3C2C)nc2cc(-c3ccc(/C=C/C(=O)O)cc3F)nn12 (stereo not shown) [Compound M8]	7.31	<4.60				
CCc1cc(C(=O)N2CCc3ccccc3[C@H]2C)nc2cc(-c3ccc(C4C[C@H]4C(=O)O)cc3F)nn12 (stereo partly shown) [Compound O15]	7.91	4.32				
C[C@@H]1CCCCCN1C(=O)c1cc(N(C)C)n2nc(-c3ccc(/C=C/C(=O)O)cc3F)cc2n1 [Compound M4]	6.80	<4.60				
CCc1cc(C(=O)N2CCCCC[C@H]2C)nc2cc(-c3ccc(/C=C/C(=O)O)cc3F)nn12 [Compound M7]	7.00	<4.60				
CCc1cc(C(=O)N2CCCCC[C@H]2C)nc2cc(-c3cccc(/C=C\C(=O)O)c3F)nn12 [Compound M31]	6.13	<4				
CCc1cc(C(=O)N2CCCC3(CC=CC3)C2C)nc2cc(-c3cccc(/C=C/C(=O)O)c3F)nn12 (stereo not shown) [Compound M39]	6.19	<4				
CC1c2ccsc2CCN1C(=O)c1cc(C2(C)CC2)n2nc(-c3cccc(/C=C/C(=O)O)c3F)cc2n1 (stereo not shown) [Compound M47]	7.87	4.07				
CC(C)Cc1cc(C(=O)N2CCCCC[C@H]2C)nc2cc(-c3ccc(-n4cc(C(=O)O)cn4)cc3F)nn12 [Compound W13]	7.45	4.38				
CCc1cc(C(=O)N2CCCCCC2C)nc2cc(-c3ccccc3Cl)nn12 (stereo not shown) [Compound A3]	5.45	4.40				
CCc1cc(C(=O)N2CCn3cccc3C2C)nc2cc(-c3cccc(/C=C/C(=O)O)c3F)nn12 (stereo not shown) [Compound M45]	7.54	<4				
CCCC(C)N(CC)C(=O)c1cc(CC)n2nc(-c3ccccc3F)cc2n1 (stereo not shown) [Compound A16]	5.57	4.45				
CCc1cc(C(=O)N2CCCCC[C@H]2C)nc2cc(-c3ccc(C4=CCCC(C(=O)O)C4)cc3F)nn12 (stereo partly shown) [Compound F52]	6.81	4.22				
C[C@@H]1CCCCCN1C(=O)c1cc(C2(C)CC2)n2nc(-c3cccc(/C=C/C(=O)O)c3F)cc2n1 [Compound M22]	7.34	4.05				
C[C@@H]1c2ccccc2CCN1C(=O)c1cc(C2(C)CC2)n2nc(-c3cccc(/C=C/C(=O)O)c3F)cc2n1 [Compound M36]	7.99	4.26				
CCc1cc(C(=O)N2CCc3ccccc3C2C)nc2cc(-c3ccc(/C=C/C(=O)O)cc3Cl)nn12 (stereo not shown) [Compound M6]	6.84	<4.60				
C[C@@H]1CCCCCN1C(=O)c1cc(C2CC2)n2nc(-c3ccc(/C=C/C(=O)O)cc3F)cc2n1 [Compound M21]	7.16	4.34				
CN1CCCCCN1C(=O)c1cc(C2(C)CC2)n2nc(-c3cccc(/C=C/C(=O)O)c3F)cc2n1 [Compound M37]	7.10	<4				
CC1CCCCCN1C(=O)c1cc(N2CCCC2)n2nc(-c3ccc(N(C)C)cc3)cc2n1 (stereo not shown) [Compound A19]	5.34	4.42				
CCc1cc(C(=O)N2CCc3ccccc3[C@H]2C)nc2cc(-c3ccc4cc(C(=O)O)ccc4c3F)nn12 [Compound F34]	7.46	4.17				
CCc1cc(C(=O)N2CCc3sccc3[C@H]2C)nc2cc(-c3ccc(-c4ccc(C(=O)O)cn4)cc3F)nn12 [Compound F63]	7.34	4.35				
CCc1cc(C(=O)N2CCCCC[C@H]2C)nc2cc(-c3ccc4c(c3F)C=C(C(=O)O)CO4)nn12 [Compound F46]	7.31	<4				
CCc1cc(C(=O)N2CCCCCC2C)nc2cc(-c3ccc(N(C)C)cc3)nn12 (stereo not shown) [Compound A2]	5.52	<4.60				
CCc1cc(C(=O)N2CCCCC[C@H]2C)nc2cc(-c3ccc4oc(C(=O)O)cc4c3F)nn12 [Compound F44]	6.40	4.25				
CCc1cc(C(=O)N2CCc3ccccc3[C@H]2C)nc2cc(-c3ccc4c(c3F)OCC(C(=O)O)=C4)nn12 [Compound F54]	8.59	4.75				
CCc1cc(C(=O)N2CCCCCN2C)nc2cc(-c3cccc(/C=C/C(=O)O)c3F)nn12 [Compound M40]	6.37	<4				

SMILES	RSV HELA pEC50 (rgRSV224 virus)	TOX HELA pCC50 (HeLa cells)	TOX HELA pCC50 (HeLa cells; HeLa cells, cytotoxicity)	melting point [°C]	EC50 (rgRSV224 virus) [µM]	CC50 at 3 days [1] [µM]
CCc1cc(C(=O)N2CCCCC[C@H]2C)nc2cc(-c3ccc(-c4nc(C(=O)O)ccc4F)cc3F)nn12 [Compound F20]	7.07	4.30				
CCc1cc(C(=O)N2CCn3c(C)ccc3C2C)nc2cc(-c3ccc(C(N)=O)cc3F)nn12 (stereo not shown) [Compound I36]	6.58	<4.60				
CCc1cc(C(=O)N2CCCCCC2C)nc2cc(-c3ccc(NC(=O)OCC4CCCN4)cc3F)nn12 (stereo not shown) [Compound C3]	6.78 and 6.55		<4.60 and 4.89			
CCc1cc(C(=O)N2CCCCC[C@H]2C)nc2cc(-c3ccc4c(c3F)OCC(C(=O)O)C4)nn12 (stereo partly shown) [Compound F42]	7.16	<4				
CCc1cc(C(=O)N2CCn3nccc3C2C)nc2cc(-c3ccc(C(N)=O)cc3F)nn12 (stereo not shown) [Compound I37]	6.24	<4.60				
CCc1cc(C(=O)N2CCCCC[C@H]2C)nc2cc(-c3ccc4c(c3F)OC[C@H](C(=O)O)C4)nn12 [Compound F64]	7.12	<4				
C[C@@H]1CCCCCN1C(=O)c1cc(C2CC2)n2nc(-c3ccc(-c4ccc(C(=O)O)cn4)cc3F)cc2n1 [Compound F21]	7.28	4.37				
CCc1cc(C(=O)N2CCc3ccccc3C2C)nc2cc(-c3cc4cccnc4cc3F)nn12 (stereo not shown) [Compound A31]	6.20	<4.60				
CCc1cc(C(=O)N2CCCCC[C@H]2C)nc2cc(-c3ccc(-c4ccc(C(=O)O)cn4)cc3F)nn12 [Compound F15]				181 to 182	0.12	> 25.1
CCCC(=O)Nc1ccc(-c2cc3nc(C(=O)N4CCCCCC4C)cc(CC)n3n2)c(F)c1 (stereo not shown) [Compound E4]				175 to 180	0.182	> 25.1
C[C@@H]1CCCCCN1C(=O)c1cc(C2(C)CC2)n2nc(-c3ccc4c(c3F)OCC(C(=O)O)=C4)cc2n1 (racemic) [Compound F51]				261.88	0.0275	57.5
CCc1cc(C(=O)N2CCCCCC2C)nc2cc(-c3ccc(C(=O)NS(C)(=O)=O)cc3F)nn12 (stereo not shown) [Compound L10]				194	2.69	> 25.1
CCCC(C)N(C)C(=O)c1cc(CC)n2nc(-c3cccc(/C=C/C(=O)O)c3F)cc2n1 (stereo not shown) [Compound M38]	6.65	<4				
C[C@@H]1CCCCCN1C(=O)c1cc(C2(C)CC2)n2nc(-c3ccc(/C=C/C(=O)O)cc3F)cc2n1 [Compound M20]				228.12	0.0324	36.3
CC1CCCCCN1C(=O)c1cc(N2CCCCC2)n2nc(-c3ccc(NC(=O)NCC4CCCO4)cc3)cc2n1 (stereo not shown) [Compound B11]				168 to 171	0.282	> 100
CC1CCCCCN1C(=O)c1cc(N(C)C2CCCCC2)n2nc(-c3ccc(NC(=O)C4CC4)cc3)cc2n1 (stereo not shown) [Compound E19]				261 to 262	0.537	> 100
CC(C)Cc1cc(C(=O)N2CCCCC[C@H]2C)nc2cc(-c3ccc(N4CC[C@H](C(=O)O)C4)cc3F)nn12 [Compound W14]	7.53	4.29				
CCc1cc(C(=O)N2CCCCC[C@H]2C)nc2nc(-c3cccs3)nn12 (racemic) [Compound S1]				162 to 163	0.832	> 100
CCc1cc(C(=O)N2CCCCCC2C)nc2nc(-c3ccc(NC(=O)NCC4CCCO4)cc3F)nn12 (stereo not shown) [Compound U1]				185 to 190	0.525	> 100
CCc1cc(C(=O)N2CCCCCCC2C)nc2cc(-c3ccc(NS(C)(=O)=O)cc3F)nn12 (stereo not shown) [Compound D3]				195 to 200	0.145	> 25.1
C[C@@H]1CCCCCN1C(=O)c1cc(C2(C)COC2)n2nc(-c3ccc(C4C[C@H]4C(=O)O)cc3F)cc2n1 (stereo partly shown) [Compound O17]	7.29	4.11				
CCc1cc(C(=O)N2CCCCC[C@H]2C)nc2cc(-c3ccc(OC)c(/C=C/C(=O)O)c3F)nn12 [Compound M34]	7.04	<4				
CCc1cc(C(=O)N2CCc3sccc3[C@H]2C)nc2cc(-c3ccc4c(c3F)OCC(C(=O)O)=C4)nn12 (racemic) [Compound F66]				256.54	0.00708	15.5
CCc1cc(C(=O)N2CCCCC[C@H]2C)nc2cc(-c3ccc(C(N)=O)cc3F)nn12 [Compound I1]				180	0.0537	> 25.1
CCc1cc(C(=O)N2CCCCC[C@H]2C)nc2cc(-c3ccc(N(C)c4ccc(C(=O)O)cn4)cc3F)nn12 (racemic) [Compound W20]				132	0.355	63.1
